The values that follow come from patent US9376454B2, “Beta-lactamase inhibitors” (priority 2013, dated 2016).

The structures appear in SMILES notation. Where two headings read alike, the source gives them in different places.

Assay [1] deals with E. coli ESBL4 expressing CTX-M-15. Description: Broth microdilution MIC assay, E. coli CTX-M-15. The format is cell-based. The note with it: E. coli expressing Class A ESBL CTX-M-15.
In assay [2] the target is T1, VIM-2 metallo β-lactamase (Pseudomonas aeruginosa, UniProt Q9K2N0).
T1 construct: made in house; host or cells: E. coli BL21(DE3)
Description: β-Lactamase inhibition enzyme assay, VIM-2. The assay is classed as biochemical. Particulars: Nitrocefin 100 μM as substrate, 486 nm; 15 min at 37° C. with enzyme, PBS pH 7.4; read-out: Class B VIM-2 IC50. In short, it runs like this: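 Purified untagged VIM-2, expressed in E. coli BL21(DE3), preincubated with inhibitor 15 min at 37 °C. Nitrocefin added at 100 μM final, and absorbance at 486 nm monitored for 10 min. IC50 taken as inhibitor concentration halving initial hydrolysis rate relative to uninhibited controls.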

For the next assay, the target named is T2, SHV-5 β-lactamase (Klebsiella pneumoniae, UniProt P0A3M1).
T2 construct: made in house; host or cells: E. coli BL21(DE3)
The assay is described as follows: β-Lactamase inhibition enzyme assay, SHV-5. The assay is classed as biochemical. The procedure, abridged:
(§1)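 Native untagged β-lactamases from E. coli BL21(DE3) were purified and preincubated with inhibitor 15 min at 37° C. Hydrolysis was then followed as initial rates: 100 μM nitrocefin at 486 nm for p99 AmpC and OXA-1, imipenem at 300 nm for KPC-2, cefotaxime at 260 nm for SHV-5. IC50 = 50% reduction versus no-inhibitor controls.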

A further assay has as its target T3, OXA-1 β-lactamase (Escherichia coli, UniProt P13661).
T3 construct: made in house; host or cells: E. coli BL21(DE3)
The assay is described as follows: β-Lactamase inhibition enzyme assay, OXA-1. The assay is classed as biochemical. The procedure, abridged:
as §1

In another assay the target is T4, p99 AmpC β-lactamase (Enterobacter cloacae, UniProt P05364).
T4 construct: made in house; host or cells: E. coli BL21(DE3)
Description: β-Lactamase inhibition enzyme assay, p99 AmpC. The format is biochemical. In short, it runs like this:
as §1

In another assay the target is T5, KPC-2 β-lactamase (Klebsiella pneumoniae, UniProt Q9F663).
T5 construct: made in house; host or cells: E. coli BL21(DE3)
Description: β-Lactamase inhibition enzyme assay, KPC-2. The format is biochemical. The procedure, abridged:
as §1

The test system of assay [3] is S. aureus MSSA-7 producing penicillinase PC-1. Description: Broth microdilution MIC assay, S. aureus PC-1. The assay is classed as cell-based. (In general: Broth dilution looks for growth in wells or tubes with falling amounts of substance.)
Assay [4] has as its system E. cloacae 144200 expressing p99 AmpC. Description: Broth microdilution MIC assay, E. cloacae P99. The assay is classed as cell-based. The note with it: fixed ceftazidime 4 μg/mL; CAMHB, 16-20 hours at 37° C.
Assay [5] concerns P. aeruginosa Ps296 expressing VIM-2. Description: Broth microdilution MIC assay, P. aeruginosa VIM-2. The format is cell-based. Particulars: P. aeruginosa expressing carbapenemase VIM-2.
In assay [6] the test system is K. pneumoniae A-1797 expressing KPC-2 and VIM-4. Description: Broth microdilution MIC assay, K. pneumoniae KPC-2 and VIM-4. The assay is classed as cell-based. The note with it: K. pneumoniae expressing KPC-2 and VIM-4.
The mark [7] stands for this setting: Nitrocefin 100 μM as substrate, 486 nm, 15 min at 37° C. with enzyme, PBS pH 7.4, read-out: Class D OXA-1 IC50.
The mark [8] stands for this setting: imipenem as substrate, 300 nm, 15 min at 37° C. with enzyme, PBS pH 7.4, read-out: Class A KPC-2 IC50.

T5 sequence (Q9F663 25-293, looked up): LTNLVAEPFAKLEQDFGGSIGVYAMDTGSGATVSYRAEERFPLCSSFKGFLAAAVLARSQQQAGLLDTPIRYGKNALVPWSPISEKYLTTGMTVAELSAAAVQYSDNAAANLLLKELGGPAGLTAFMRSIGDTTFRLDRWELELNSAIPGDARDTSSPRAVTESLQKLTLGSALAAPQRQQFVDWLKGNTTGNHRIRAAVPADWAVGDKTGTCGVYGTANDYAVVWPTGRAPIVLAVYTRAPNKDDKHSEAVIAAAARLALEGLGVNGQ
T3 sequence (P13661 26-276): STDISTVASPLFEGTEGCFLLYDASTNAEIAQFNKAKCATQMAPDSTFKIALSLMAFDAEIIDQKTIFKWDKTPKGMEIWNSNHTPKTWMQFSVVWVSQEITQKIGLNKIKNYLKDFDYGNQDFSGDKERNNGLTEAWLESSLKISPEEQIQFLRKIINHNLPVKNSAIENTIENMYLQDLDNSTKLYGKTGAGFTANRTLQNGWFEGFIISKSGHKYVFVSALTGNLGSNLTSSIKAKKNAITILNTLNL
T2 sequence (P0A3M1 22-286): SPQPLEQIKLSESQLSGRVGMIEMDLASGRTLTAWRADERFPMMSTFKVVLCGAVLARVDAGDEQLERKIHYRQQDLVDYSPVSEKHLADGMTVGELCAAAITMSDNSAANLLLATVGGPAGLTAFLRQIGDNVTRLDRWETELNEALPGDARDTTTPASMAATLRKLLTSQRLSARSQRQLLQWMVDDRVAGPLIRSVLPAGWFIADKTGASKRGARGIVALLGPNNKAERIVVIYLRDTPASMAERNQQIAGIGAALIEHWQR
T4 sequence (P05364 21-381): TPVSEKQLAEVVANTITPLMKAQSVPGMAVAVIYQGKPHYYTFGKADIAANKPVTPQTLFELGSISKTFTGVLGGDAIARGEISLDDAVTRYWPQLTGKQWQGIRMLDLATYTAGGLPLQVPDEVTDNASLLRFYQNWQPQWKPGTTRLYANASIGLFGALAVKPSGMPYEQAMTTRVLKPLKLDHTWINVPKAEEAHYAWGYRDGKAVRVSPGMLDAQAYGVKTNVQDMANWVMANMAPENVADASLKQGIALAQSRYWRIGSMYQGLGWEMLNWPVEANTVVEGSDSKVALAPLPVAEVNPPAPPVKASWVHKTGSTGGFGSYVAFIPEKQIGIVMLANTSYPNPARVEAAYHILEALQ

For `CC(C)(O/N=C(\C(=O)N[C@@H]1C(=O)N2C(C(=O)[O-])=C(C[n+]3ccccc3)CS[C@H]12)c1csc(N)n1)C(=O)O` [Ceftazidime], the “MIC alone of partner antibiotic” value in assay [1] is > 128 µg/mL.

One may read the IC50 as the concentration needed to halve the response being measured. Consider `O=C(O)c1cccc2c1OB(O)[C@@H](NC(=O)C1(c3ccccc3)CCNCC1)C2` [Example 3, (R)-2-hydroxy-3-(4-phenylpiperidine-4-carboxamido)-3,4-dihydro-2H-benzo[e][1,2]oxaborinine-8-carboxylic acid], for which the IC50 is 1 to 10 µM in assay [2]; 10 to 100 µM against SHV-5 β-lactamase; 0.1 to 1 µM at OXA-1 β-lactamase; < 0.1 µM against p99 AmpC β-lactamase; < 0.1 µM at KPC-2 β-lactamase. The “MIC of Exemplary Compounds in presence of fixed β-lactams: Fixed Pip, S. aureus MSSA-7 PC-1” value in assay [3] (fixed piperacillin 4 μg/mL, CAMHB, 16-20 hours at 37° C.) is given as “A (A represents an MIC of the fixed β-lactam antibiotic in the presence of >32 μg/mL of a β-lactamase inhibitor of exemplary compounds)”.

Turning to `NCc1cc(CN)cc(C(=O)N[C@H]2Cc3cccc(C(=O)O)c3OB2O)c1` [Example 44, (R)-3-(3,5-bis(aminomethyl)benzamido)-2-hydroxy-3,4-dihydro-2H-benzo[e][1,2]oxaborinine-8-carboxylic acid], the IC50 in [2] fell in the range of 1 to 10 µM; on SHV-5 β-lactamase, 1 to 10 µM; at OXA-1 β-lactamase (setting [7]) it was 1 to 10 µM; against p99 AmpC β-lactamase, 0.1 to 1 µM; on KPC-2 β-lactamase (setting [8]), 1 to 10 µM. The “MIC of Exemplary Compounds in presence of fixed β-lactams: Fixed CAZ, E. cl. 144200 p99 AmpC” value in assay [4] is reported as “C (C represents the MIC in the presence of ≦4 μg/mL of a β-lactamase inhibitor of exemplary compounds)”.

As to `NCc1cc(C(=O)N[C@H]2Cc3cccc(C(=O)O)c3OB2O)cnc1CN` [Example 62, (R)-3-(5,6-bis(aminomethyl)nicotinamido)-2-hydroxy-3,4-dihydro-2H-benzo[e][1,2]oxaborinine-8-carboxylic acid], the half-maximal inhibitory concentration (IC50) in assay [2] was 0.1 to 1 µM; against SHV-5 β-lactamase, < 0.1 µM; on OXA-1 β-lactamase (setting [7]) it was < 0.1 µM; at p99 AmpC β-lactamase it was < 0.1 µM; on KPC-2 β-lactamase (setting [8]), < 0.1 µM.

On to `NCc1cnc(C(=O)N[C@H]2Cc3cccc(C(=O)O)c3OB2O)cc1CN` [Example 63], for which the concentration for half-maximal inhibition (IC50) was < 0.1 µM in assay [2]; 0.1 to 1 µM against SHV-5 β-lactamase; < 0.1 µM on OXA-1 β-lactamase (setting [7]); < 0.1 µM on p99 AmpC β-lactamase; < 0.1 µM at KPC-2 β-lactamase (setting [8]).

With `C[C@@H](O)[C@H]1C(=O)N2C(C(=O)O)=C(S[C@@H]3CN[C@H](C(=O)N(C)C)C3)[C@H](C)[C@H]12` [Meropenem], the “MIC alone of partner antibiotic” value in assay [5] amounted to 16 µg/mL; in assay [6], 64 µg/mL.

`CCN1CCN(C(=O)N[C@@H](C(=O)N[C@@H]2C(=O)N3[C@@H]2SC(C)(C)[C@@H]3C(=O)O)c2ccccc2)C(=O)C1=O` [Piperacillin, reference compound]: the “MIC alone of partner antibiotic” value in assay [3] (antibiotic alone, S. aureus producing penicillinase PC-1) amounted to 64 µg/mL.
